Measured values as given in patent US20060228297A1, “Thorium-227 for use in radiotherapy of soft tissue disease” (priority 2003, published 2006).

Test system: patients with metastases to the skeleton from breast or prostate cancer
Assay: Phase IA/IB trials of ^223Ra, single and repeated injection, safety and tolerance (Example 9)
Assay type: in vivo, humans
Method: The experiment of Example 8 was carried out with dose metering calibrated to a high accuracy. Dose levels measured at 46, 93, 163, 213, and 250 kBq/kg of ^223Ra were given as single doses and a multiple-dose schedule was also introduced.
Thirty-one patients with metastases to the skeleton, 10 from breast- and 21 from prostate cancer, all, were enrolled in phase IA and phase IB trials. The prostate cancer patients were from 60 to 85 years and had body weights ranging from 50 to 120 kg. All of them had progressive disease considered hormone refractory. The breast cancer patients were from 40 to 70 years, with bodyweight from 50 to 95 kg. All of them were progressing second hormonal and/or chemotherapy. The primary objective was to evaluate the safety and tolerance of ^223Ra.
The follow up period was 8 weeks.
In the single injection trial the following average dose levels were used; 46, 93, 163, 213, and 250-kBq kg^−1 bodyweight (b.w.). Five patients were included at each dose level. Fifteen prostate- and 10 breast cancer patients were included.
In the repeated injection schedule, 6 patients, all with prostate cancer, were included. Three patients were scheduled to receive 5 doses, each of 50 kBq kg^−1 b.w. at three-weeks intervals, and three patients to receive 2 doses, each of 125 kBq kg−1 b.w. at six-weeks intervals.
Radium-223 was produced from ^227Ac/^227Th and purified using Ac-resin to immobilize ^227Ac and ^227Th as described in WO0040275. The product concentrate, i.e., dissolved ^223RaCl2 was tested for radionuclide purity by gamma spectroscopy before further use. A concentrate of the ^223Ra in NaCl and Na Citrate was sent sterile production. Isotonicity, pH, and activity concentration were adjusted; a sample kept aside for pathogen and pyrogen testing, and the final product was filled in sterile vials that were subsequently capped with a sealed rubber membrane penetrable to syringes. The vials were put into lead containers and shipped to the hospitals.
The effect of the radium-223 on neutrophil cell fractions, platelets, white-blood-cell count and Heamoglobin were monitored to give a wide ranging measure of haematological toxicity. […] The results were expressed as the number of patients in the study showing a particular level of toxicity on the CTC Toxicity Grade scale and are set out in Table 6 below.

[1] = Multiple dosing 2 × 125 kBq/kg, n = 3
[2] = Multiple dosing 5 × 50 kBq/kg, n = 3

`[223Ra]` [^223Ra, radium-223] was tested, and the “Haemoglobin, CTC Grade 0: number of patients” value [1] was 0, the “Haemoglobin, CTC Grade 1: number of patients” value [1] was 1 and the “Haemoglobin, CTC Grade 2: number of patients” value [1] was 2. For the same molecule, the “Neutrophile, CTC Grade 0: number of patients” value [1] was 3, the “Neutrophile, CTC Grade 1: number of patients” value [1] was 0 and the “Neutrophile, CTC Grade 2: number of patients” value [1] was 0. The “Neutrophile, CTC Grade 3: number of patients” value [1] was 0, the “Platelets, CTC Grade 0: number of patients” value [1] was 3 and the “Platelets, CTC Grade 1: number of patients” value [1] was 0. The “W B C, CTC Grade 0: number of patients” value [1] was 2, the “W B C, CTC Grade 1: number of patients” value [1] was 0 and the “W B C, CTC Grade 2: number of patients” value [1] was 1. For the same molecule, the “W B C, CTC Grade 3: number of patients” value [1] was 0, the “Haemoglobin, CTC Grade 0: number of patients” value [2] was 0 and the “Haemoglobin, CTC Grade 1: number of patients” value [2] was 2. For the same molecule, the “Haemoglobin, CTC Grade 2: number of patients” value [2] was 1, the “Neutrophile, CTC Grade 0: number of patients” value [2] was 1 and the “Neutrophile, CTC Grade 1: number of patients” value [2] was 0. For the same molecule, the “Neutrophile, CTC Grade 2: number of patients” value [2] was 2, the “Neutrophile, CTC Grade 3: number of patients” value [2] was 0 and the “Platelets, CTC Grade 0: number of patients” value [2] was 2. For the same molecule, the “Platelets, CTC Grade 1: number of patients” value [2] was 1, the “W B C, CTC Grade 0: number of patients” value [2] was 1 and the “W B C, CTC Grade 1: number of patients” value [2] was 0. The “W B C, CTC Grade 2: number of patients” value [2] was 2, the “W B C, CTC Grade 3: number of patients” value [2] was 0 and the “Haemoglobin, CTC Grade 0: number of patients” value (Re-treatment, n = 2) was 1. For the same molecule, the “Haemoglobin, CTC Grade 1: number of patients” value (Re-treatment, n = 2) was 1, the “Haemoglobin, CTC Grade 2: number of patients” value (Re-treatment, n = 2) was 0 and the “Neutrophile, CTC Grade 0: number of patients” value (Re-treatment, n = 2) was 2. The “Neutrophile, CTC Grade 1: number of patients” value (Re-treatment, n = 2) was 0, the “Neutrophile, CTC Grade 2: number of patients” value (Re-treatment, n = 2) was 0 and the “Neutrophile, CTC Grade 3: number of patients” value (Re-treatment, n = 2) was 0. The “Platelets, CTC Grade 0: number of patients” value (Re-treatment, n = 2) was 2, the “Platelets, CTC Grade 1: number of patients” value (Re-treatment, n = 2) was 0 and the “W B C, CTC Grade 0: number of patients” value (Re-treatment, n = 2) was 2. The “W B C, CTC Grade 1: number of patients” value (Re-treatment, n = 2) was 0, the “W B C, CTC Grade 2: number of patients” value (Re-treatment, n = 2) was 0 and the “W B C, CTC Grade 3: number of patients” value (Re-treatment, n = 2) was 0. For the same molecule, the “Haemoglobin, CTC Grade 0: number of patients” value (Single dose 46 kBq/kg, n = 5) was 4, the “Haemoglobin, CTC Grade 1: number of patients” value (Single dose 46 kBq/kg, n = 5) was 0 and the “Haemoglobin, CTC Grade 2: number of patients” value (Single dose 46 kBq/kg, n = 5) was 1. For the same molecule, the “Neutrophile, CTC Grade 0: number of patients” value (Single dose 46 kBq/kg, n = 5) was 4, the “Neutrophile, CTC Grade 1: number of patients” value (Single dose 46 kBq/kg, n = 5) was 0 and the “Neutrophile, CTC Grade 2: number of patients” value (Single dose 46 kBq/kg, n = 5) was 1. For the same molecule, the “Neutrophile, CTC Grade 3: number of patients” value (Single dose 46 kBq/kg, n = 5) was 0, the “Platelets, CTC Grade 0: number of patients” value (Single dose 46 kBq/kg, n = 5) was 5 and the “Platelets, CTC Grade 1: number of patients” value (Single dose 46 kBq/kg, n = 5) was 0. The “W B C, CTC Grade 0: number of patients” value (Single dose 46 kBq/kg, n = 5) was 4, the “W B C, CTC Grade 1: number of patients” value (Single dose 46 kBq/kg, n = 5) was 0 and the “W B C, CTC Grade 2: number of patients” value (Single dose 46 kBq/kg, n = 5) was 1. For the same molecule, the “W B C, CTC Grade 3: number of patients” value (Single dose 46 kBq/kg, n = 5) was 0, the “Haemoglobin, CTC Grade 0: number of patients” value (Single dose 93 kBq/kg, n = 5) was 2 and the “Haemoglobin, CTC Grade 1: number of patients” value (Single dose 93 kBq/kg, n = 5) was 2. For the same molecule, the “Haemoglobin, CTC Grade 2: number of patients” value (Single dose 93 kBq/kg, n = 5) was 1, the “Neutrophile, CTC Grade 0: number of patients” value (Single dose 93 kBq/kg, n = 5) was 3 and the “Neutrophile, CTC Grade 1: number of patients” value (Single dose 93 kBq/kg, n = 5) was 1. For the same molecule, the “Neutrophile, CTC Grade 2: number of patients” value (Single dose 93 kBq/kg, n = 5) was 1, the “Neutrophile, CTC Grade 3: number of patients” value (Single dose 93 kBq/kg, n = 5) was 0 and the “Platelets, CTC Grade 0: number of patients” value (Single dose 93 kBq/kg, n = 5) was 5. The “Platelets, CTC Grade 1: number of patients” value (Single dose 93 kBq/kg, n = 5) was 0, the “W B C, CTC Grade 0: number of patients” value (Single dose 93 kBq/kg, n = 5) was 4 and the “W B C, CTC Grade 1: number of patients” value (Single dose 93 kBq/kg, n = 5) was 0. For the same molecule, the “W B C, CTC Grade 2: number of patients” value (Single dose 93 kBq/kg, n = 5) was 1, the “W B C, CTC Grade 3: number of patients” value (Single dose 93 kBq/kg, n = 5) was 0 and the “Haemoglobin, CTC Grade 0: number of patients” value (Single dose 163 kBq/kg, n = 5) was 4. For the same molecule, the “Haemoglobin, CTC Grade 1: number of patients” value (Single dose 163 kBq/kg, n = 5) was 0, the “Haemoglobin, CTC Grade 2: number of patients” value (Single dose 163 kBq/kg, n = 5) was 1 and the “Neutrophile, CTC Grade 0: number of patients” value (Single dose 163 kBq/kg, n = 5) was 3. For the same molecule, the “Neutrophile, CTC Grade 1: number of patients” value (Single dose 163 kBq/kg, n = 5) was 0, the “Neutrophile, CTC Grade 2: number of patients” value (Single dose 163 kBq/kg, n = 5) was 1 and the “Neutrophile, CTC Grade 3: number of patients” value (Single dose 163 kBq/kg, n = 5) was 1. For the same molecule, the “Platelets, CTC Grade 0: number of patients” value (Single dose 163 kBq/kg, n = 5) was 4, the “Platelets, CTC Grade 1: number of patients” value (Single dose 163 kBq/kg, n = 5) was 1 and the “W B C, CTC Grade 0: number of patients” value (Single dose 163 kBq/kg, n = 5) was 3. The “W B C, CTC Grade 1: number of patients” value (Single dose 163 kBq/kg, n = 5) was 0, the “W B C, CTC Grade 2: number of patients” value (Single dose 163 kBq/kg, n = 5) was 1 and the “W B C, CTC Grade 3: number of patients” value (Single dose 163 kBq/kg, n = 5) was 1. The “Haemoglobin, CTC Grade 0: number of patients” value (Single dose 213 kBq/kg, n = 5) was 2, the “Haemoglobin, CTC Grade 1: number of patients” value (Single dose 213 kBq/kg, n = 5) was 2 and the “Haemoglobin, CTC Grade 2: number of patients” value (Single dose 213 kBq/kg, n = 5) was 1. For the same molecule, the “Neutrophile, CTC Grade 0: number of patients” value (Single dose 213 kBq/kg, n = 5) was 2, the “Neutrophile, CTC Grade 1: number of patients” value (Single dose 213 kBq/kg, n = 5) was 1 and the “Neutrophile, CTC Grade 2: number of patients” value (Single dose 213 kBq/kg, n = 5) was 2. The “Neutrophile, CTC Grade 3: number of patients” value (Single dose 213 kBq/kg, n = 5) was 0, the “Platelets, CTC Grade 0: number of patients” value (Single dose 213 kBq/kg, n = 5) was 5 and the “Platelets, CTC Grade 1: number of patients” value (Single dose 213 kBq/kg, n = 5) was 0. For the same molecule, the “W B C, CTC Grade 0: number of patients” value (Single dose 213 kBq/kg, n = 5) was 2, the “W B C, CTC Grade 1: number of patients” value (Single dose 213 kBq/kg, n = 5) was 0 and the “W B C, CTC Grade 2: number of patients” value (Single dose 213 kBq/kg, n = 5) was 2. For the same molecule, the “W B C, CTC Grade 3: number of patients” value (Single dose 213 kBq/kg, n = 5) was 1, the “Haemoglobin, CTC Grade 0: number of patients” value (Single dose 250 kBq/kg, n = 5) was 2 and the “Haemoglobin, CTC Grade 1: number of patients” value (Single dose 250 kBq/kg, n = 5) was 3. For the same molecule, the “Haemoglobin, CTC Grade 2: number of patients” value (Single dose 250 kBq/kg, n = 5) was 0, the “Neutrophile, CTC Grade 0: number of patients” value (Single dose 250 kBq/kg, n = 5) was 2 and the “Neutrophile, CTC Grade 1: number of patients” value (Single dose 250 kBq/kg, n = 5) was 0. For the same molecule, the “Neutrophile, CTC Grade 2: number of patients” value (Single dose 250 kBq/kg, n = 5) was 2, the “Neutrophile, CTC Grade 3: number of patients” value (Single dose 250 kBq/kg, n = 5) was 1 and the “Platelets, CTC Grade 0: number of patients” value (Single dose 250 kBq/kg, n = 5) was 2. The “Platelets, CTC Grade 1: number of patients” value (Single dose 250 kBq/kg, n = 5) was 3, the “W B C, CTC Grade 0: number of patients” value (Single dose 250 kBq/kg, n = 5) was 2 and the “W B C, CTC Grade 1: number of patients” value (Single dose 250 kBq/kg, n = 5) was 0. The “W B C, CTC Grade 2: number of patients” value (Single dose 250 kBq/kg, n = 5) was 2, the “W B C, CTC Grade 3: number of patients” value (Single dose 250 kBq/kg, n = 5) was 1 and the “Reversible diarrhoea, grades 1 and 2, share of patients” value (all dose groups, total) was “approximately 50%”. For the same molecule, the Dose-limiting toxicity (dose escalating part, single dose 46 to 250 kBq/kg) was “not observed”, the “Thrombocytes, toxicity grade” value (even at the two highest dose levels) was 1 grade and the “Vomiting, number of patients” value (highest dose group) was “four”. The “Nausea, number of patients” value (highest dose level) was “four”, the “Neutropenia of maximum grade 3, number of patients” value (single injection trial) was “two” and the “Reversible myelosuppression, nadir after injection” value (single injection, recovery during the follow-up period) was 2-3 weeks. For the same molecule, the “Additional toxicity related to the repetition of the treatment” value (three patients in the 50×5 schedule) was “did not experience any additional toxicity”.
